How the values were obtained:
[1] = equivalent to dexamethasone 0.75 mg; cited from earlier work
[2] = test system: LPS-GalN challenged mice; test: LPS-GalN model of fatal cytokine storm and sepsis; RJX, DEX or RJX+DEX 2 hours post LPS-GalN; format: in vivo, BALB/c mice; details: for Censored: alive at 24 h; for Events: deaths within 24 h
[3] = RJX 0.7 ml/kg (n=20), DEX 0.6 mg/kg (n=10), or both (n=20)

For `C[C@]12CCC(=O)C=C1CC[C@@H]1[C@@H]2C(=O)C[C@@]2(C)[C@H]1CC[C@]2(O)C(=O)CO` [Cortisone], the “Approximate Equivalent Dose” value [1] is listed as 25 mg.
With `C[C@@H]1C[C@H]2[C@@H]3CCC4=CC(=O)C=C[C@]4(C)[C@@]3(F)[C@@H](O)C[C@]2(C)[C@@]1(O)C(=O)CO` [DEX, dexamethasone] the Censored ([2]; DEX 0.1 mg/kg i.p. 2 h post LPS-GalN, n=6) was 1, the Median survival ([2]; DEX 0.1 mg/kg, n=6) was 5.1 h and the “Proportion (24-h mortality)” value ([2]; DEX 0.1 mg/kg, n=6) was 83.3%. For the same compound, the Events ([2]; DEX 0.1 mg/kg, n=6) was 5, the Censored ([2]; DEX 0.6 mg/kg i.p. 2 h post LPS-GalN, n=6) was 3 and the Median survival ([2]; DEX 0.6 mg/kg, n=6) was 15.0 h. The “Proportion (mortality)” value ([2]; DEX 0.6 mg/kg, n=6) was 50.0%, the Events ([2]; DEX 0.6 mg/kg, n=6) was 3 and the Censored ([2]; DEX 6.0 mg/kg i.p. 2 h post LPS-GalN, n=6) was 4. For the same compound, the “Proportion (mortality)” value ([2]; DEX 6.0 mg/kg, n=6) was 33.3%, the Events ([2]; DEX 6.0 mg/kg, n=6) was 2 and the “Proportion (mortality)” value [2, 3] was 50.0%. For the same compound, the Censored ([2]; RJX 0.7 ml/kg (n=20), DEX 0.6 mg/kg (n=10), or both (n=20) 2 h post LPS-GalN) was 5, the Events [2, 3] was 5 and the “lung histopathological ALI scores, range” value ([2]; RJX 0.7 ml/kg, DEX 6.0 mg/kg, alone or combined, n=6) was 1-3. For the same compound, the “ALI score of representative mouse” value ([2]; single dose at 2 hours post-LPS-GalN, sacrificed at 24 hours, FIG. 20) was 2.
In the case of `C[C@]12CCC(=O)C=C1CC[C@@H]1[C@@H]2[C@@H](O)C[C@@]2(C)[C@H]1CC[C@]2(O)C(=O)CO` [Hydrocortisone], the “Approximate Equivalent Dose” value [1] is given as 20 mg.
For `C[C@]12C=CC(=O)C=C1CC[C@@H]1[C@@H]2[C@@H](O)C[C@@]2(C)[C@H]1CC[C@]2(O)C(=O)CO` [Prednisolone], the “Approximate Equivalent Dose” value [1] is listed as 5 mg.
In the case of `C[C@]12C=CC(=O)C=C1CC[C@H]1[C@@H]3C[C@@H](O)[C@](O)(C(=O)CO)[C@@]3(C)C[C@H](O)[C@@]12F` [Triamcinolone], the “Approximate Equivalent Dose” value [1] is listed as 4 mg.
